Patent publication US11744901B2, “Phage conjugates and uses thereof” (CONSIGLIO NAZIONALE DELLE RICERCHE, priority 2017, dated 2023)

Legend:
[1] = human immunotherapy, repeated KRN7000 administration; cited from earlier work
B16 melanoma cells = assay: Therapeutic vaccination against B16 tumour cells; type: in vivo; conditions: B16 melanoma subcutaneous in C57BL/6 mice, intratumoural treatment when tumours palpable; FIG. 4
Description: C57BL/6 mice (n=5/group) were inoculated with 2.5×10^5 B16 melanoma cells kindly provided by Dr. Dellabona (Istituto scientifico San Raffaele, Milan, Sartorius R et al., 2011) subcutaneously in the left side. When the tumours became palpable, the mice were vaccinated with PBS, 2.5 micrograms aGalCer, 50 micrograms of fdWT bacteriophages or 50 micrograms of fdWT/aGalCer in a total volume of 80 microliters. Tumour growth was assessed three times a week using a caliber and reported as tumour volume (in mm^3) according to the formula (d^2×D)/2, where d and D are the minor diameter and the major one, respectively. The mice were sacrificed when the size of the tumour had exceeded 1,500 mm^3, in compliance with the established guidelines. Survival was recorded as the percentage of surviving animals.

splenocytes = conditions: stated as known, cited from earlier work
iNKT cells = conditions: animal model; prevents release of cytokines after recall stimulations (Sullivan and Kronenberg 2005); cited from earlier work

Compound | tolerability in patients [1] | tumour growth (B16 melanoma cells) | levels of T-cell receptor (TCR) on iNKTs (splenocytes; administered intravenously to mice) | ability of splenocytes to proliferate and produce cytokines after in vitro restimulation with aGalCer (splenocytes; mice injected with soluble aGalCer, compared to naive splenocytes) | clinical response in patients [1] | anergy of iNKT cells (iNKT cells)
CCCCCCCCCCCCCCCCCCCCCCCCCC(=O)N[C@@H](CO[C@H]1OC(CO)[C@H](O)C(O)C1O)[C@H](O)[C@H](O)CCCCCCCCCCCCCC (stereo partly drawn) [aGalCer, alpha-Galactosylceramide] | well tolerated | – | – | – | – | –
CCCCCCCCCCCCCCCCCCCCCCCCCC(=O)N[C@@H](CO[C@H]1O[C@H](CO)[C@H](O)[C@H](O)[C@H]1O)[C@H](O)[C@H](O)CCCCCCCCCCCCCC [aGalCer, alpha-Galactosylceramide] | – | not able to protect animals from tumour growth | decrease | lose rapidly their ability to proliferate and produce cytokines | weak clinical response | induces long term cell anergy of iNKT cells
